Data: US20080311589A1, “METHOD OF HIGH-THROUGHPUT SCREENING OF MOLECULES AND COMPOUNDS FOR THEIR EFFECTS ON BIOLOGICAL AND CHEMICAL PROCESSES” (priority 1999, published 2008)
Where two headings read alike, the source gives them in different places.

What was measured:
[1] = test system: p3TPLux TGFβ-responsive reporter in 6F mink lung cells; experiment: luciferase assay, stably transfected p3TPLux; type: cell-based; conditions: substance alone
Description: FIG. 19 graphs the dose-response of transcriptional activation of compounds 1a and 2 in the presence (*) or absence (•) of 400 pM TGFβ1. 20,000 6F mink lung cells ( ) were seeded in 384 well plates, allowed to attach for 16 hours in 10% mink medium, and were treated with the indicated concentrations of 1a or 2.
We screened more than 16,000 chemical compounds to identify those that specifically activated expression of a reporter gene (luciferase) under the control of TGFβ-responsive elements in stably transfected mammalian cells (mink lung epithelial cells). […] Given the structural similarity of compounds 1a-c, we expected that all three were operating through a common mechanism. We therefore continued testing on only one, compound 1a, as representative of the group.

[2] = test system: p3TPLux in 6F mink lung cells; experiment: antagonism of p3TPLux activation in 6F mink lung cells; type: cell-based; conditions: for suppression of reporter activation by copper: TGFβ-responsive reporter; for suppression of reporter activation by 1a / suppression of reporter activation by 2 / suppression of reporter activation by TGFβ: TGFβ-responsive reporter in mink lung epithelial cells
Description: LUCIFERASE ASSAYS: Our transient transfection luciferase assay was described previously by us (Stockwell et al., Chem Biol 5:385, 1998). Briefly, 100,000 Mv1Lu mink lung epithelial cells were transiently transfected in 12-well dishes with 400 ng p3TPLux or pNFkB-Lux, with or without 50 ng pFC-MEKK, in 300 μL minimal essential medium with non-essential amino acids. The DEAE-dextran/chloroquine/DMSO methods was used for transfection (Stockwell et al., Chem Biol 6:71, 1999). After cell lysis in 120 μL lysis buffer, a Beckman LS 6500 liquid scintillation counter was used in single photon mode to quantitate luminescence. For detection of luciferase activity in 6F cells (including the primary screen), 20,000 6F cells were seeded in 50 μL of 10% mink medium in each well of a white 384-well plate (Nalge Nune International; Naperville, Ill.; cat#164610) using a Multidrop 384 liquid dispenser (Lab Systems; Helsinki, Finland). After 16 hours, medium was removed using a 24 channel wand (V&P Scientific, Inc.; San Diego, Calif.; cat#VP 186L), the cells were washed with 75 μL of 0.2% mink medium (containing 0.2% FBS), and reagents were added in 40 μL of 0.2% medium. For the primary screen, reagents were added by pin transfer using 384 polypropylene pin arrays (Matrix Technologies; Hudson, N.H.). After 24 hours, the cells were cooled on ice and washed twice with 75 μL Hanks Balanced Salt Solution (HBSS; GibcoBRL; cat#24020-117). Then 20 μL lysis buffer (25 mM glycylglycine (Sigma; cat#E-0396), 1% Triton X-100 (Sigma; cat#T-9284), 1 mM dithiothreitol (DTT; Sigma; cat#D-5545), 1 mM phenylmethylsulfonyl fluoride (PMSF; Sigma; cat#P-7626)) was added to each well with a Multidrop. After incubating the cells for five minutes on ice, 20 μL of ATP/luciferin solution was added (25 mM glycylglycine pH 7.8, 15 mM MgSO4, 4 mM EGTA, 6.25 mM K2HPO4 (Sigma; cat#P5504) pH 7.8, 5 mM DTT, 75 μM D-luciferin (Sigma, cat# L-9504, 2 mM ATP (Sigma; cat#A-7699)). Light output was immediately measured with an Analyst 384-well platereader (LJL), with 0.5 second counting time per well.

[3] = UV spectral shift binding assay with 2; conditions: metal ion concentration inducing a 50% shift in λmax of UV shoulder of 2 from 297 nm to 310 nm ([2] = 20 μM); read-out: EC50UV 2
Description: (§1) UV SPECTRAL SHIFT BINDING ASSAY: A quartz cuvette with 1 mL deionized, distilled water was used as a blank on a Cary 1E UV-visible spectrophotomer. 1a or 2 was diluted to a final concentration of 15 μM or 20 μM, respectively, and the UV spectrum from 240 nm to 320 nm was measured. […] Upon addition of certain transition metals (Table 1), this peak shifted such that the new λmax was 273 nm and 310 nm, for 1a and 2, respectively. […] For the calculation of correlation coefficients, all values less than 7.5 μM were taken to be 7.5 μM, all values greater than 1000 μM were taken to be 1000 μm and all values less than 10 μM were taken to be 10 μM.

[4] = UV spectral shift binding assay with 1a; conditions: metal ion concentration inducing a 50% shift in λmax of UV shoulder of 1a ([1a] = 15 μM) from 292 nm to 273 nm; estimate of dissociation constant; read-out: EC50UV 1a
Description: as §1

[5] = test system: Mv1Lu mink lung epithelial cells; experiment: 384 well anti-BrdU cytoblot; type: cell-based; conditions: 384-well plate; antiproliferative agents 24 hours, then 10 μM BrdU 16 hours (FIG. 2)
Description: FIG. 1. An immunodetection assay for DNA synthesis in high density arrays of mammalian cells. (a) Cartoon depiction of an anti-BrdU cytoblot. The thymine analog 5-bromodeoxyuridine (BrdU) is incorporated into the DNA of cells that are actively replicating their DNA. The cells are in the well, and BrdU is detected with a two step antibody binding procedure. The second antibody is conjugated to the enzyme horseradish peroxidase. In the presence of the chemiluminescent substrate luminol as well as hydrogen peroxide, light of wavelength 428 nm is generated. The light emission can be detected by exposing the plate to film. (b) A cytoblot can detect TGF-β's ability to prevent BrdU incorporation in mink lung epithelial cells. 2000 Mv1Lu mink lung epithelial cells were seeded in each well of a white, opaque 384 well plate. The cells were seeded in the indicated concentrations of TGF-β in 50 μL of DMEM with 1% fetal bovine serum (FBS), 100 units/mL penicillin G sodium, 100 μg/mL streptomycin sulfate and 100 μM each of the amino acids alanine, aspartic acid, glutamine, glycine, asparagine and proline (referred to throughout as 1% mink medium) and allowed to incubate at 37° C. with 5% CO2. After 16 hours, 5.5 μL of 100 μM BrdU in 1% mink medium was added to each well, for a final concentration of 10 μM BrdU. The cells were incubated at 37° C. with 5% CO2 for an additional 16 hours and then an anti-BrdU cytoblot protocol was performed (see protocol). Wells shown are magnified 4×.
FIG. 2. A cytoblot can detect the ability of numerous antiproliferative agents to inhibit BrdU incorporation. 2000 Mv1Lu mink lung epithelial cells were seeded in each well of a white, opaque 384 well plate. The cells were seeded in 40 μL of 1% mink media and immediately 40 μL of 2× stocks of the reagents shown was added to each well and the cells were allowed to incubate at 37° C. with 5% CO2. After 24 hours, 9 μL of 100 μM BrdU in 1% mink medium was added to each well, for a final concentration of 10 μM BrdU. The cells were incubated at 37° C. with 5% CO2 for an additional 16 hours and then an anti-BrdU cytoblot protocol was performed (see protocol). Wells shown are magnified 2.5×.
The ability of the cytoblot assay to detect changes in DNA synthesis was tested by measuring the incorporation of 5-bromodeoxyuridine (BrdU, Sigma Corporation, St. Louis, Mo., Cat.# B9285) into DNA in the presence or absence of the anti-mitogen transforming growth factor β (TGF-β). Mink lung cells, which are responsive to TGF-β, were seeded into each well of an opaque, white 384-well plate. The cells were subsequently treated with varying concentrations of TGF-β for 16 hours and then with 10 μM BrdU for 16 hours. […] The following protocols provide experimental detail. […]

[6] = metal ion concentration inhibiting 50% of the activation of p3TPLux by 1a ([1a] = 3 μM) in 6F mink lung cells, read-out: EC50SU 1a
[7] = metal ion concentration inhibiting 50% of the activation of p3TPLux by 2 ([2] = 64 μM) in 6F mink lung cells, read-out: EC50Su 2

Row | SMILES | activation of the TGFβ-responsive reporter gene [1] | alteration of the effect of 1a, 2, or copper on the reporter [2] | EC50 [3] [µM] | EC50 [4] [µM] | suppression of reporter activation by copper [2] | suppression of reporter activation by 1a [2] | suppression of reporter activation by 2 [2] | suppression of reporter activation by TGFβ [2] | EC50 [2, 6] [µM] | EC50 [2, 7] [µM] | BrdU incorporation [5]
1 | Oc1cccc2cccnc12 [8-hydroxyquinoline, 8-quinolinol] | did not activate our reporter |  |  |  |  |  |  |  |  |  | 
2 | CC(C)(C#N)N=NC(C)(C)C#N [AIBN, 2,2′-azobis (2-methylpropinonitrile)] |  | neither agent altered the effect of 1a, 2, or copper |  |  |  |  |  |  |  |  | 
3 | [Cl][Al]([Cl])[Cl] [Al^3+, A1C13] |  |  | 200 | 30 | did not | suppressed transcriptional activation by 1a | no effect on activation by 2 or TGFβ | no effect on activation by 2 or TGFβ | 1 | > 300 | 
4 | CC(=O)[O-].CC(=O)[O-].[Ba+2] [Ba^2+, Ba(OAc)2] |  |  | > 1000 | > 1000 |  |  |  |  | > 1000 | > 1000 | 
5 | [Ca+2].[Cl-].[Cl-] [Ca^2+, CaCl2.2H2O] |  |  | > 1000 | > 1000 |  |  |  |  | > 1000 | > 1000 | 
6 | O.O.O.O.O.O.[Cl-].[Cl-].[Co+2] [Co^2+, CoCl2.6H2O] |  |  |  |  | did not | completely suppressed | completely suppressed | no effect |  |  | 
7 | [Cl-].[Cl-].[Co+2] [Co^2+, CoCl2.6H2O] |  |  | 50 | 100 |  |  |  |  | 10 | 30 | 
8 | OO [Compound H2O2, H2O2] |  | neither agent altered the effect of 1a, 2, or copper |  |  |  |  |  |  |  |  | 
9 | [Cl][Fe]([Cl])[Cl] [Fe^3+, FeCl3] |  |  | < 10 | < 7.5 | did not | completely suppressed | completely suppressed | no effect | 2 | 9 | 
10 | [Cl-].[K+] [K^+, KCl] |  |  | > 1000 | > 1000 |  |  |  |  | > 1000 | > 1000 | 
11 | [Cl-].[Cl-].[Mg+2] [Mg^2+, MgCl2] |  |  | > 1000 | > 1000 |  |  |  |  | > 1000 | > 1000 | 
12 | O.O.O.O.[Cl][Mn][Cl] [Mn^2+, MnC12.4H2O] |  |  | > 1000 | 80 | did not | suppressed transcriptional activation by 1a | no effect on activation by 2 or TGFβ | no effect on activation by 2 or TGFβ | 200 | > 300 | 
13 | [Cl-].[Na+] [Na^+, NaCl] |  |  | > 1000 | > 1000 |  |  |  |  | > 1000 | > 1000 | 
14 | O.O.O.O.O.O.O=S(=O)([O-])[O-].[Ni+2] [Ni^2+, NiSO4.6H2O] |  |  | 500 | 280 | did not | suppressed transcriptional activation by 1a | no effect on activation by 2 or TGFβ | no effect on activation by 2 or TGFβ | 10 |  | 
15 | [Cl-].[Cl-].[Zn+2] [Zn^2+, ZnCl2] |  |  | 500 | < 7.5 | suppressed the ability of copper to activate reporter gene expression | suppressed transcriptional activation by 1a | no effect on activation by 2 or TGFβ | no effect on activation by 2 or TGFβ | 0.5 | > 300 | 
16 | NC(=O)NO [hydroxyurea] |  |  |  |  |  |  |  |  |  |  | effectively prevent BrdU incorporation
